Assay results reported in ChEMBL document CHEMBL1159348, “S(R)-podolactone D, a new sulfoxide-containing norditerpene dilactone from Podocarpus macrophyllus var. maki” (J Nat Prod, 2003).
Converted amounts (≈) assume the structure as drawn.

System: P388
Assay: Cytotoxicity against mouse P388 cells
Assay type: functional, cell-based

C[S@+]([O-])C[C@](C)(O)[C@H]1OC(=O)C=C2[C@@]13O[C@@H]3[C@H]1OC(=O)[C@@]3(C)C=CC[C@@]2(C)[C@@H]13 (stereo in doubt; 1)
IC50: 0.52 µg/mL (≈ 1.27 µM)

C[S@+]([O-])C[C@](C)(O)[C@H]1OC(=O)C=C2[C@@]13O[C@@H]3[C@H]1OC(=O)[C@@]3(C)C=CC[C@@]2(C)[C@@H]13 (stereo in doubt; 2)
IC50: 0.23 µg/mL (≈ 0.563 µM)
